Measured values published in patent publication US7138411B2, “Substituted benzopyran derivatives for the treatment of inflammation” (G.D. Searle & Co., priority 1997, dated 2006).

What was measured:
COX-2 [1] = molecular target: T1, COX-2 (UniProt P35354); assay: Assay for COX-2 activity (PGE2 ELISA); details: read-out: COX-2 IC50; 10–20 minutes pre-incubation, reaction stopped after ten minutes, pH 8.0
T1 sequence (P35354 1-604): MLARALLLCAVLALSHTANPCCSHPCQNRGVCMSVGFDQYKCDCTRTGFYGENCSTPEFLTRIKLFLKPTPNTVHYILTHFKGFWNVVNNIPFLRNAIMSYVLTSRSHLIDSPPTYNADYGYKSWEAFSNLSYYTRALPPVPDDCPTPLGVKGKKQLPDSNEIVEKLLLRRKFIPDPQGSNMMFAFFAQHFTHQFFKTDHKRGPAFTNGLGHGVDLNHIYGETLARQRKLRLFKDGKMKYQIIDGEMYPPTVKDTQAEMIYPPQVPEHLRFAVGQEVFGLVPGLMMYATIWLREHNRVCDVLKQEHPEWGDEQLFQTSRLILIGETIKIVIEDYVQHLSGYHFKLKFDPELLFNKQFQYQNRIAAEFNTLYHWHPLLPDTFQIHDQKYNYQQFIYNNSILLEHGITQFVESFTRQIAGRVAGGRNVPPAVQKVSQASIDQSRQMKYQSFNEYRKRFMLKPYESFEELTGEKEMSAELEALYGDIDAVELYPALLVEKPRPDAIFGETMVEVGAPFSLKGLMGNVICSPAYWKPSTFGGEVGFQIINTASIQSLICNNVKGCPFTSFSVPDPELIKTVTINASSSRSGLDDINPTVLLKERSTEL

COX-1 = COX-1 (UniProt P23219); assay: Assay for COX-1 activity (PGE2 ELISA); details: read-out: COX-1 IC50; 10–20 minutes pre-incubation, reaction stopped after ten minutes, pH 8.0
COX-2 [2] = molecular target: T1, COX-2; assay: Fast assay for COX-2 activity (PGE2 ELISA); type: biochemical, human or murine; details: fast assay: 10 min pre-incubation at 25° C., reaction stopped after two minutes, pH 7.5

melting point [°C]	IC50 (COX-2 [1]) [µM]	IC50 (COX-1) [µM]	IC50 (COX-2 [2]) [µM]	Compound
205 to 207	< 0.1	< 0.1	< 0.1	COc1ccc(Oc2ccc3c(c2)C=C(C(=O)O)C(C(F)(F)F)O3)cc1Cl (stereo not drawn) [Example 9, 6-(3-Chloro-4-methoxyphenoxy)-2-(trifluoromethyl)-2H-1-benzopyran-3-carboxylic acid]
227.8 to 228.9	134	44	> 0.1	O=C(O)C1=Cc2cc(Cl)cc(Br)c2OC1C(F)(F)F (stereo not drawn) [Example 15, 8-Bromo-6-chloro-2-trifluoromethyl-2H-1-benzopyran-3-carboxylic acid]
171.6 to 175	24	> 100	7	CC(C)(C)c1cc2c(c(C(C)(C)C)c1)OC(C(F)(F)F)C(C(=O)O)=C2 (stereo not drawn) [Example 23, 6,8-bis(1,1-Dimethylethyl)-2-trifluoromethyl-2H-1-benzopyran-3-carboxylic acid]
185.3 to 187.8	16	3.8	< 0.1	O=C(O)C1=Cc2cc(Cl)c(-c3ccccc3)cc2OC1C(F)(F)F (stereo not drawn) [Example 30, 6-Chloro-7-phenyl-2-trifluoromethyl-2H-1-benzopyran-3-carboxylic acid]
225 to 226	8.2	28	< 0.1	O=C(O)C1=Cc2cc(Br)cc(Br)c2OC1C(F)(F)F (stereo not drawn) [Example 33, 6,8-Dibromo-2-trifluoromethyl-2H-1-benzopyran-3-carboxylic acid]
111 to 115	1.7	11	2.2	CCOC(=O)C1=Cc2cc(N)ccc2OC1C(F)(F)F (stereo not drawn) [Example 35, Ethyl 6-amino-2-trifluoromethyl-2H-1-benzopyran-3-carboxylate]
220.7 to 221.7	< 0.1	11	< 0.1	O=C(O)C1=Cc2cc(Br)cc(Cl)c2OC1C(F)(F)F (stereo not drawn) [Example 42, 6-Bromo-8-chloro-2-trifluoromethyl-2H-1-benzopyran-3-carboxylic acid]
237 to 238	21	> 100	0.3	Cc1cc(Br)c2c(c1)C=C(C(=O)O)C(C(F)(F)F)O2 (stereo not drawn) [Example 44, 8-Bromo-6-methyl-2-trifluoromethyl-2H-1-benzopyran-3-carboxylic acid]
221.7 to 223.3	46	> 100	0.2	O=C(O)C1=Cc2c(F)ccc(Br)c2OC1C(F)(F)F (stereo not drawn) [Example 45, 8-Bromo-5-fluoro-2-trifluoromethyl-2H-1-benzopyran-3-carboxylic acid]
223.3 to 224.4	31	> 100	24	O=C(O)C1=Cc2cc(S(=O)(=O)NCc3ccccc3)ccc2OC1C(F)(F)F (stereo not drawn) [Example 49, 6-[[(Phenylmethyl)amino]sulfonyl]-2-trifluoromethyl-2H-1-benzopyran-3-carboxylic acid]
215.2 to 219.3	6	> 100	8	O=C(O)C1=Cc2cc(S(=O)(=O)N3CCOCC3)ccc2OC1C(F)(F)F (stereo not drawn) [Example 53, 6-[(4-Morpholino)sulfonyl]-2-trifluoromethyl-2H-1-benzopyran-3-carboxylic acid]
190.6 to 192.4	53	> 100	46	CC(C)CNS(=O)(=O)c1ccc2c(c1)C=C(C(=O)O)C(C(F)(F)F)O2 (stereo not drawn) [Example 55, 6-[(2-Methylpropyl)aminosulfonyl]-2-trifluoromethyl-2H-1-benzopyran-3-carboxylic acid]
208.3 to 212.4	29	> 100	12	CS(=O)(=O)c1ccc2c(c1)C=C(C(=O)O)C(C(F)(F)F)O2 (stereo not drawn) [Example 56, 6-Methylsulfonyl-2-trifluoromethyl-2H-1-benzopyran-3-carboxylic acid]
162.3 to 164.7	< 0.1	6.4	< 0.1	O=C(O)C1=Cc2cc(C(F)(F)C(F)(F)F)ccc2OC1C(F)(F)F (stereo not drawn) [Example 88, 6-(Pentafluoroethyl)-2-(trifluoromethyl)-2H-1-benzopyran-3-carboxylic acid]
268.3 to 269.4	0.1	25	0.2	O=C(O)C1=Cc2cc(C(=O)c3ccc(Cl)cc3)ccc2OC1C(F)(F)F (stereo not drawn) [Example 97, 6-(4-Chlorobenzoyl)-2-(trifluoromethyl)-2H-1-benzopyran-3-carboxylic acid]
234 to 239.5	1.5	19	2	O=C(O)C1=Cc2cc(C(=O)c3ccc(O)cc3)ccc2OC1C(F)(F)F (stereo not drawn) [Example 98, 6-(4-Hydroxybenzoyl)-2-(trifluoromethyl)-2H-1-benzopyran-3-carboxylic acid]
184.9 to 186.4	< 0.1	23	0.2	O=C(O)C1=Cc2cc(Oc3ccccc3)ccc2OC1C(F)(F)F (stereo not drawn) [Example 99, 6-Phenoxy-2-(trifluoromethyl)-2H-1-benzopyran-3-carboxylic acid]
153.5 to 154.4	< 0.1	16	< 0.1	O=C(O)C1=Cc2cc(Oc3ccc(C(F)(F)F)cc3)ccc2OC1C(F)(F)F (stereo not drawn) [Example 101, 2-(Trifluoromethyl)-6-[4-(trifluoromethyl)phenoxy)-2H-1-benzopyran-3-carboxylic acid]
140.5 to 142.5	< 0.1	8.2	< 0.1	O=C(O)C1=Cc2cc(Oc3ccc(Cl)cc3)ccc2OC1C(F)(F)F (stereo not drawn) [Example 104, 6-(4-Chlorophenoxy)-2-(trifluoromethyl)-2H-1-benzopyran-3-carboxylic acid]
253.5 to 256	< 0.1	5.7	0.2	O=C(O)C1=Cc2c(ccc3oc4ccccc4c23)OC1C(F)(F)F (stereo not drawn) [Example 106, 3-(Trifluoromethyl)-3H-benzofuro[3,2-f][1]benzopyran-2-carboxylic acid]
183.2 to 185.8	< 0.1	< 0.1	< 0.1	C=Cc1cc(Cl)cc2c1OC(C(F)(F)F)C(C(=O)O)=C2 (stereo not drawn) [Example 114, 6-Chloro-8-ethenyl-2-(trifluoramethyl)-2H-1-benzopyran-3-carboxylic acid]
257.5 to 258.8	< 0.1	< 0.1	< 0.1	O=C(O)C1=Cc2cc(Cl)cc(-c3cccs3)c2OC1C(F)(F)F (stereo not drawn) [Example 116, 6-Chloro-8-(2-thienyl)-2-(trifluoromethyl)-2H-1-benzopyran-3-carboxylic acid]
190.1 to 192.1	< 0.1	33	< 0.1	O=C(O)C1=Cc2cc(Cl)cc(C#Cc3ccccc3)c2OC1C(F)(F)F (stereo not drawn) [Example 120, 6-Chloro-8-(phenylethynyl)-2-(trifluoromethyl)-2H-1-benzopyran-3-carboxylic acid]
205.5 to 207.3	< 0.1	< 0.1	< 0.1	O=C(O)C1=Cc2cc(Cl)cc(-c3ccc(Cl)cc3)c2OC1C(F)(F)F (stereo not drawn) [Example 125, 6-Chloro-8-(4-chlorophenyl)-2-(trifluoromethyl)-2H-1-benzopyran-3-carboxylic acid]
196.3 to 197.7	< 0.1	0.3	0.2	O=C(O)C1=Cc2cc(Cl)cc(-c3ccccc3)c2OC1C(F)(F)F (stereo not drawn) [Example 129, 6-Chloro-8-phenyl-2-(trifluoromethyl)-2H-1-benzopyran-3-carboxylic acid]
215 to 216	< 0.1	11.1	0.3	O=C(O)C1=Cc2cc(-c3ccc(Br)cc3)ccc2OC1C(F)(F)F (stereo not drawn) [Example 138, 6-(4-Bromophenyl)-2-(trifluoromethyl)-2H-1-benzopyran-3-carboxylic acid]
–	< 0.1	10	< 0.1	Cc1cc2c(cc1Cl)C=C(C(=O)O)C(C(F)(F)F)S2 (stereo not drawn) [Example 152, 6-Chloro-7-methyl-2-(trifluoromethyl)-2H-1-benzothiopyran-3-carboxylic acid]
262.5 to 263.5	< 0.1	37	0.5	O=C(O)C1=Cc2cc(Cl)c(Cl)cc2SC1C(F)(F)F (stereo not drawn) [Example 154, 6,7-Dichloro-2-(trifluoromethyl)-2H-1-benzothiopyran-3-carboxylic acid]
